Target: FAK kinase (catalytic construct FAK(410-689)) (Homo sapiens (Human), UniProt Q05397)
Assay: FAKcd kinase ELISA (inhibition of poly-glu-tyr phosphorylation by FAK(410-689))
Format: biochemical
Details: 50 μM final ATP
Protocol: A. In-Vitro Activity of FAK:
The assay protocol has three parts:
3. […] 4. […] 5. […] 6. […] 7. […] 9. […] 10. […] 12. […] 13. […] 14. Aliquot the FAKcd protein and store frozen at −80° C. II. FAK Activation 1. […] At t120 (t=120 minutes), add 10 μl of 150 mM ATP. […] Add 180 μl aliquots of the desalted material to NiNTA spin column and incubate on spin column 4. […] FAKcd Kinase ELISA 1. Coat 96-well Nunc MaxiSorp plates with poly-glu-tyr (pGT) at […]: Prepare 10 μg/ml of pGT in PBS and aliquot 100 μl/well. Incubate the plates at 37° C. overnight, aspirate the supernatant, wash the plates 3 times with Wash Buffer, and flick to dry before storing at 4° C. 2. Prepare compound stock solutions of 2.5 mM in 100% DMSO. The stocks are subsequently diluted to 60× of the final concentration in 100% DMSO, and diluted 1:5 in Kinase Phosphorylation Buffer. 3. […] Add 80 μl to each well for a final ATP concentration of 50 μM. 4. […] 5. Dilute on ice, FAKcd protein to 1:1000 in Kinase Phosphorylation Buffer. Dispense 30 μl per well. 6. Note: Linearity and the appropriate dilution must be pre-determined for each batch of protein. The enzyme concentration selected should be such that quantitation of the assay signal will be approximately 0.8-1.0 at OD450, and in the linear range of the reaction rate. 7. Prepare both a No ATP control (noise) and a No Compound Control (Signal): 8. (Noise) One blank row of wells receives 10 μl of 1:5 diluted compounds in DMSO, 80 μl of Phosphorylation buffer (minus ATP), and 30 μl FAKcd solution. 9. […] 10. Incubate reaction at room temperature for 15 minutes with gentle shaking on a plate shaker. 11. Terminate the reaction by aspirating off the reaction mixture and washing 3 times with wash buffer. 12. Dilute phospho-tyrosine HRP-conjugated (pY20HRP) antibody to 0.250 μg/ml (1:1000 of Stock) in blocking buffer. Dispense 100 μl per well, and incubate with shaking for 30 minutes at 25°. 13. Aspirate the supernatant and wash the plate 3 times with wash buffer. 14. Add 100 μl per well of room temperature TMB solution to initiate color development. Color development is terminated after approximately 15-30 sec. by the addition of 100 μl of 0.09M H2SO4 per well. 15. The signal is quantitated by measurement of absorbance at 450 nm on the BioRad ricroplate reader or a microplate reader capable of reading at OD450. 16. Inhibition of tyrosine kinase activity would result in a reduced absorbance signal. […] The values are reported as IC50s, μM concentration. FAK Inducible cell-based ELISA: Final Protocol Materials: […]

FAK kinase (catalytic construct FAK(410-689)), sequence (Q05397 410-689): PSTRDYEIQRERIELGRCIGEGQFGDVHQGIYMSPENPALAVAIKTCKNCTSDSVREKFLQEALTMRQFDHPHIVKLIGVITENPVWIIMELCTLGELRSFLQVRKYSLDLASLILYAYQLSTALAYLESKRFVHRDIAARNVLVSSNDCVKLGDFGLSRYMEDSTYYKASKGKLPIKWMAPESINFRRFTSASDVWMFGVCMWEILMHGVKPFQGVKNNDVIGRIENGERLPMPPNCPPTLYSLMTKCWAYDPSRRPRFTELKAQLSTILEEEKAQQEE

SMILES | IC50
CN(c1ncccc1CNc1nc(NC2CCN(S(C)(=O)=O)CC2)ncc1C(F)(F)F)S(C)(=O)=O [Compound 36, N-methyl-N-[3-({[2-{[1-(methylsulfonyl)piperidin-4-yl]amino}-5-(trifluoromethyl)pyrimidin-4-yl]amino}methyl)pyridin-2-yl]methanesulfonamide] | 188 nM
CC(=O)N1CC[C@@H](Nc2ncc(C(F)(F)F)c(NCc3cccnc3N(C)S(C)(=O)=O)n2)C1 [Compound 39, N-[3-({[2-{[(3R)-1-acetylpyrrolidin-3-yl]amino}-5-(trifluoromethyl)pyrimidin-4-yl]amino}methyl)pyridin-2-yl]-N-methylmethane-sulfonamide] | 1000 nM
COC(=O)c1ccc(Nc2ncc(C(F)(F)F)c(NCc3cccnc3N(C)S(C)(=O)=O)n2)cc1 [Compound 40, methyl 4-({4-[({2-[methyl(methylsulfonyl)amino]pyridin-3-yl}methyl)amino]-5-(trifluoromethyl)pyrimidin-2-yl}amino)benzoate] | 0.59 nM
CN(c1ncccc1CNc1nc(Nc2ccc(C(=O)O)cc2)ncc1C(F)(F)F)S(C)(=O)=O [Compound 43, 4-({4-[({2-[methyl(methylsulfonyl)amino)pyridin-3-yl}methyl)amino]-5-(trifluoromethyl)pyrimidin-2-yl}amino)benzoic acid] | 0.6 nM
CN(c1ncccc1CNc1nc(NC2CCNCC2)ncc1C(F)(F)F)S(C)(=O)=O [Compound 44, N-methyl-N-[3-({[2-(piperidin-4-ylamino)-5-(trifluoromethyl)pyrimidin-4-yl]amino}methyl)pyridin-2-yl]methanesulfonamide] | 188 nM
CC(=O)N1CCC(Nc2ncc(C(F)(F)F)c(NCc3cccnc3N(C)S(C)(=O)=O)n2)CC1 [Compound 45, N-{3-[({2-[(1-acetylpiperidin-4-yl)amino]-5-(trifluoromethyl)pyrimidin-4-yl}amino)methyl)pyridin-2-yl}-N-methylmethane-sulfonamide] | 188 nM
CS(=O)(=O)c1cccc(CNc2nc(Nc3ccccc3)ncc2C(F)(F)F)c1 [Compound 46, N-4-(3-(methylsulfonyl)benzyl]-N-2-phenyl-5-(trifluoromethyl)pyrimidine-2,4-diamine] | 1.02 nM
CNC(=O)c1ccc(Nc2ncc(C(F)(F)F)c(NCc3cccc(S(C)(=O)=O)c3)n2)cc1 [Compound 52, N-methyl-4-{[4-{[3-(methylsulfonyl)benzyl]amino}-5-(trifluoromethyl)pyrimidin-2-yl]amino}benzamide] | 1.95 nM
CC(=O)NCC(=O)N1CCC(Nc2ncc(C(F)(F)F)c(NCc3cccnc3N(C)S(C)(=O)=O)n2)CC1 [Compound 56, N-{2-[4-({4-[({2-[methyl(methylsulfonyl)amino]pyridin-3-yl}methyl)amino]-5-(trifluoromethyl)pyrimidin-2-yl}amino)piperidin-1-yl]-2-oxoethyl}acetamide] | 188 nM
CN(c1ncccc1CNc1nc(Nc2ccc(C(N)=O)cn2)ncc1C(F)(F)F)S(C)(=O)=O [Compound 59, 6-({4-[({2-[methyl(methylsulfonyl)amino]pyridin-3-yl}methyl)amino]-5-(trifluoromethyl)pyrimidin-2-yl}amino)nicotinamide] | 8.93 nM
Cc1ccc(CNc2nc(Nc3ccccc3)ncc2C(F)(F)F)c(NS(C)(=O)=O)c1 [Compound 62, N-[2-({[2-anilino-5-(trifluoromethyl)pyrimidin-4-yl]amino}methyl)-5-methylphenyl]methanesulfonamide] | 10.3 nM
Cc1ccc(N(C)S(C)(=O)=O)cc1CNc1nc(Nc2ccccc2)ncc1C(F)(F)F [Compound 63, N-[3-({[2-anilino-5-(trifluoromethyl)pyrimidin-4-yl]amino}methyl)-4-methylphenyl]-N-methylmethanesulfonamide] | 0.6 nM

The remaining lines, values ahead:

IC50 | SMILES
497 nM | CN(c1ncccc1CNc1nc(NC2CCC2)ncc1C(F)(F)F)S(C)(=O)=O [Compound 38, N-[3-({[2-(cyclobutylamino)-5-(trifluoromethyl)pyrimidin-4-yl]amino}methyl)pyrldin-2-yl]-N-methylmethane-sulfonamide]
188 nM | CN(c1ncccc1CNc1nc(Nc2ccc(C(=O)O)cc2)ncc1C(F)(F)F)S(C)(=O)=O [Compound 42, 4-({4-[({2-[methyl(methylsulfonyl)amino]pyridin-3-yl}methyl)amino]-5-(trifluoromethyl)pyrimidin-2-yl}amino)benzoic acid]
0.59 nM | COc1cc(C(N)=O)ccc1Nc1ncc(C(F)(F)F)c(NCc2cccnc2N(C)S(C)(=O)=O)n1 [Compound 48, 3-methoxy-4-({4-[({2-[methyl(methylsuffonyl)amino]pyridin-3-yl}methyl)amino]-5-(trifluoromethyl)pyrimidin-2-yl}amino)benzamide]
0.59 nM | COc1cc(C(N)=O)ccc1Nc1ncc(C(F)(F)F)c(NCc2ccc(C)nc2N(C)S(C)(=O)=O)n1 [Compound 49, 3-methoxy-4-({4-[({6-methyl-2-[methyl(methylsulfonyl)-amino]pyridin-3-yl}methyl)amino]-5-(trifluoromethyl)pyrirnidin-2-yl}amino)benzamide]
0.59 nM | Cc1ccc(CNc2nc(Nc3ccccc3)ncc2C(F)(F)F)c(N(C)S(C)(=O)=O)n1 [Compound 51, N-[3-({[2-anilino-5-(trifluoromethyl)pyrimidin-4-yl]amino}methyl)-6-methylpyridin-2-yl]-N-methylmethanesulfonamide]
188 nM | COCC(=O)N1CCC(Nc2ncc(C(F)(F)F)c(NCc3cccnc3N(C)S(C)(=O)=O)n2)CC1 [Compound 55, N-[3-({[2-{[1-(methoxyacetyl)piperidin-4-yl]amino}-5-(trifluoromethyl)pyrimidin-4-yl]amino}methyl)pyridin-2-yl]-N-methylmethane-sulfonamide]
188 nM | CN(c1ncccc1CNc1nc(NC2CCN(C(N)=O)CC2)ncc1C(F)(F)F)S(C)(=O)=O [Compound 57, 4-({4-[({2-[methyl(methylsulfonyl)amino]pyridin-3-yl}methyl)amino]-5-(trifluoromethyl)pyrimidin-2-yl}amino)piperidine-1-carboxamide]
165 nM | CN(c1ncccc1CNc1nc(NC2CCN(C(=O)CC(F)(F)F)CC2)ncc1C(F)(F)F)S(C)(=O)=O [Compound 58, N-methyl-N-[3-({[5-(trifluoromethyl)-2-{[1-(3,3,3-trifluoropropanoyl)piperidin-4-yl]amino}pyrimidin-4-yl]amino}methyl)pyridin-2-yl]methanesulfonamide]
188 nM | CCOC(=O)[C@H]1CC[C@@H](Nc2ncc(C(F)(F)F)c(NCc3cccnc3N(C)S(C)(=O)=O)n2)CC1 [Compound 60, ethyl cis-4-({4-(({2-[methyl(methylsulfonyl)amino]pyridin-3-yl}methyl)amino]-5-(trifluoromethyl)pyrimidin-2-yl}amino)cyclohexanecarboxylate]
1.02 nM | CN(c1ncccc1CNc1nc(Nc2ccc(S(=O)(=O)Nc3ccccn3)cc2)ncc1C(F)(F)F)S(C)(=O)=O [Compound 61, 4-({4-[({2-[methyl(methylsulfonyl)amino]pyridin-3-yl}methyl)amino]-5-(trifluoromethyl)pyrimidin-2-yl}amino)-N-pyridin-2-ylbenzenesulfonamide]
0.6 nM | Cc1cccc(CNc2nc(Nc3ccccc3)ncc2C(F)(F)F)c1N(C)S(C)(=O)=O [Compound 64, N-[2-({[2-anilino-5-(trifluoromethyl)pyrimidin-4-yl)amino}methyl)-6-methylphenyl]-N-methylmethanesulfonamide]
0.6 nM | Cc1ccc(CNc2nc(Nc3ccccc3)ncc2C(F)(F)F)c(N(C)S(C)(=O)=O)c1 [Compound 65, N-[2-({[2-anilino-5-(trifluoromethyl)pyrimidin-4-yl]amino}methyl)-5-methylphenyl]-N-methylmethanesulfonamide]
0.6 nM | Cc1ccc(N(C)S(C)(=O)=O)c(CNc2nc(Nc3ccccc3)ncc2C(F)(F)F)c1 [Compound 66, N-[2-({[2-anilino-5-(trifluoromethyl)pyrimidin-4-yl]amino}methyl)-4-methylphenyl]-N-methylmethanesulfonamide]

Source: patent US10450297B2, “Sulfonyl amide derivatives for the treatment of abnormal cell growth” (Pfizer, Inc., priority 2007, dated 2019)
